Source: patent US12612465B2, “Formulations comprising PCSK9 specific monoclonal antibodies” (Amgen Inc., priority 2012, dated 2026)

What was measured:
PCSK9 [1] = assay: Serum lipids after a single subcutaneous dose in cynomolgus monkeys; assay type: in vivo, cynomolgus monkey; details: 0.5 mg/kg single SC
Text: Briefly, naive male cynomolgus monkeys were acclimated to their environment for at least 2 weeks prior to experimentation. Animals were randomized into treatment groups based on a pre-screen of their serum TC, HDL-C, LDL-C, and triglyceride levels, and their body weight. After 1 week, animals were fasted overnight, and bled from the peripheral vasculature (cephalic or saphenous vein), for measurement of baseline serum lipid levels at a time point designated T=0. […] Fasting blood samples were then collected from animals at designated time points over a 45 day period.
At specified time points, blood was collected from animals under overnight fasting conditions from the peripheral vasculature (cephalic or saphenous vein). Whole blood was allowed to coagulate for 30 minutes at room temperature. Following centrifugation at 3,000 rpm for 20 minutes, serum was collected. Direct serum cholesterol analysis was performed using the Cobas Integra 400 analyzer (Roche Diagnostics Inc, Indianapolis, Ind.). Apolipoprotein B serum levels were determined at specified time points (day 0, 3, 6, 15, 24 and 33) by Anilytics, Md., with the following methodology. A 17 μL aliquot of the sample (no preparation) was used for analysis with a Hitachi 717 Analyzer using a 6 points standard curve. If the initial value of the sample was higher than the standard curve linearity, then the sample was diluted and repeated with the result multiplied by the appropriate dilution factor. The reagents for the assay (APO-B Reagent Kit #86071, Antibody Set #86060, Control Set #86103) were obtained from DiaSorin (Stillwater, Minn.).
A statistical model that considers baseline as a covariate and treatment group as a fixed effect was fit to the log transformed response at each time point for LDL-C, HDL-C, TC, and triglycerides. Tukey's multiple comparison correction was applied to adjust the pair wise comparisons at each time point. The statistical significance was evaluated at alpha=0.05 using adjusted p-values.

PCSK1 = biological target: T1, PCSK1 (Homo sapiens, UniProt P29120); assay: 11F1 binding specificity competition assay; details: 0.4 μg/mL 11F1, 0 to 20 μg/mL competitor
T1 construct: purchased R&D Systems
T1 sequence (P29120 111-753): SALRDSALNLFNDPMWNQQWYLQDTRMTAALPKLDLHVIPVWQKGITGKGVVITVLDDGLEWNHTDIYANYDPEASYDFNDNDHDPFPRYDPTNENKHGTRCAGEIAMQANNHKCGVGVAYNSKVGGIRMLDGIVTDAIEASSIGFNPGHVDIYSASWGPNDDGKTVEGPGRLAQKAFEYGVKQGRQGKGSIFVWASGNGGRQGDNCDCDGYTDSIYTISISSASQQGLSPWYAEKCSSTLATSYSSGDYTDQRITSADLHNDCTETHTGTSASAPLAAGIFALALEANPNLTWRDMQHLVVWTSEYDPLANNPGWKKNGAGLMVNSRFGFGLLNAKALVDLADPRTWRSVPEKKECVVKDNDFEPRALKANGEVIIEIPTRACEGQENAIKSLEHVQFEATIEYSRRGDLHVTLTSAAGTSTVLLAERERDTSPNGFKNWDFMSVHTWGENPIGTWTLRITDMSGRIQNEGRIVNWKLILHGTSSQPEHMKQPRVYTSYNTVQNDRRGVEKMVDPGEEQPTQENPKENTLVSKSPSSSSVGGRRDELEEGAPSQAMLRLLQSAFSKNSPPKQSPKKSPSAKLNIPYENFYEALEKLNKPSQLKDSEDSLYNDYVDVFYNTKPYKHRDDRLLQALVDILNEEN
Description: (§1) Biotinylated PCSK9, diluted in buffer A (25 mM Tris, 150 mM NaCl, 0.1% BSA, 0.05% tween, pH 7.5) was bound to neutravidin coated 96 well plates at a concentration of 0.2 μg/mL, for one hour incubation at room temperature. Separately, 0.4 μg/mL of 11F1 was incubated for one hour at room temperature with various concentrations (ranging from 0 to 20 μg/mL) of either PCSK1, PCSK2, PCSK7, PCSK9 or furin (R&D Systems, Minneapolis, Minn.) (diluted in buffer A w/o tween). Furin inhibitor, at 4.5 μg/mL, was included with all furin containing reactions. The PCSK9 coated streptavidin plate was washed with buffer A and the antibody/proprotein convertase mixture was added to the plate and incubated at room temperature for one hour. After washing, bound antibody was detected by incubation with goat-α-human Fc-HRP (160 ng/mL, diluted in buffer A) (Jackson Laboratories, Bar Harbor, Me.) followed by TMB substrate. The reaction was stopped with 1 N HCl and the absorbance was read at a wavelength of 450 nm on a Spectramax Plus 384 spectrophotometer (Molecular Devices Inc., Sunnyvale, Calif.).
(§2) This assay relied on the ability of proprotein convertase in solution to compete for the binding of 11F1 to plate-captured PCSK9. […] All results were expressed as the mean OD450 value±standard deviation versus concentration of the proprotein convertase. […] Therefore, at the protein concentrations studied, 11F1 binds only to PCSK9 and not to the other proprotein convertase family members tested.

PCSK9 [2] = biological target: PCSK9 (Homo sapiens, UniProt Q8NBP7); assay: 11F1 binding specificity competition assay; details: 0.4 μg/mL 11F1, 0 to 20 μg/mL competitor
Description: as §1, §2

PCSK7 = biological target: T2, PCSK7 (Homo sapiens, UniProt Q16549); assay: 11F1 binding specificity competition assay; details: 0.4 μg/mL 11F1, 0 to 20 μg/mL competitor
T2 construct: purchased R&D Systems
T2 sequence (Q16549 142-785): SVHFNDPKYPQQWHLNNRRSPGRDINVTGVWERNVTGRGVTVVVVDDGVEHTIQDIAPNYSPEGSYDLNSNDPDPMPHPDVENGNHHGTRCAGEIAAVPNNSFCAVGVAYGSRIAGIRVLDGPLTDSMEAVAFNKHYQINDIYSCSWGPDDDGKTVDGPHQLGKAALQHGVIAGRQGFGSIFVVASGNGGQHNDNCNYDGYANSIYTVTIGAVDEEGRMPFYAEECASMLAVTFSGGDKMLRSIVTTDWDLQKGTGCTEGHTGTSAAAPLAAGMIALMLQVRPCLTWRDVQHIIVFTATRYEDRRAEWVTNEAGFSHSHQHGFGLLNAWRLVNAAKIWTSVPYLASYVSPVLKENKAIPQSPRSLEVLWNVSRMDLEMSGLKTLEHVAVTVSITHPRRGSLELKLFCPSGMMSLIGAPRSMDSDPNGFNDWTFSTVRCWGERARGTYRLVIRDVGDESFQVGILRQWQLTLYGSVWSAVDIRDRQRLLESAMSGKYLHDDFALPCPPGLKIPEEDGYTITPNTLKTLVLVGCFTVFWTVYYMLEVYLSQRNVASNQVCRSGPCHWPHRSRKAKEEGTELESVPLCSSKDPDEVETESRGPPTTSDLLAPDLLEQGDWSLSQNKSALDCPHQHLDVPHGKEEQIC
Description: as §1, §2

furin = biological target: T3, furin (Homo sapiens, UniProt P09958); assay: 11F1 binding specificity competition assay; details: 0.4 μg/mL 11F1, 0 to 20 μg/mL competitor, furin inhibitor 4.5 μg/mL
T3 construct: purchased R&D Systems
Description: as §1, §2

T3 sequence (P09958 108-794, species assumed): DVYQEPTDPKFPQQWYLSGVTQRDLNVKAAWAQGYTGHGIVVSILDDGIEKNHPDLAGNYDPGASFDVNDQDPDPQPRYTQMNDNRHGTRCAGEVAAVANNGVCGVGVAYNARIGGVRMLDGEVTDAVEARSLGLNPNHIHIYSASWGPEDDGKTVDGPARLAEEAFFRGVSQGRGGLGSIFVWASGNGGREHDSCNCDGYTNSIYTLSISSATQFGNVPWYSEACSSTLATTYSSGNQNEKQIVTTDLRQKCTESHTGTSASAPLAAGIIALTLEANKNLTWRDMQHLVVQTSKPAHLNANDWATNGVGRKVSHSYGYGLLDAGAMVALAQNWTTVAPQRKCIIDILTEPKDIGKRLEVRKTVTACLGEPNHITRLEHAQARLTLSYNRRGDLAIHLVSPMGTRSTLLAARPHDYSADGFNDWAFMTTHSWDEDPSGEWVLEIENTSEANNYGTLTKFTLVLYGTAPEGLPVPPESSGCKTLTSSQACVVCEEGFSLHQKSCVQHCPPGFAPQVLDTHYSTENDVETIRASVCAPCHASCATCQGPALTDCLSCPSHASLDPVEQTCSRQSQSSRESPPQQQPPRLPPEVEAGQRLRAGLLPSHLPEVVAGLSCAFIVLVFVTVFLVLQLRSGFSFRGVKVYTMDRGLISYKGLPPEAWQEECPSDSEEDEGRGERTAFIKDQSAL
Sequence of PCSK9 (Homo sapiens, UniProt Q8NBP7) (Q8NBP7 153-692): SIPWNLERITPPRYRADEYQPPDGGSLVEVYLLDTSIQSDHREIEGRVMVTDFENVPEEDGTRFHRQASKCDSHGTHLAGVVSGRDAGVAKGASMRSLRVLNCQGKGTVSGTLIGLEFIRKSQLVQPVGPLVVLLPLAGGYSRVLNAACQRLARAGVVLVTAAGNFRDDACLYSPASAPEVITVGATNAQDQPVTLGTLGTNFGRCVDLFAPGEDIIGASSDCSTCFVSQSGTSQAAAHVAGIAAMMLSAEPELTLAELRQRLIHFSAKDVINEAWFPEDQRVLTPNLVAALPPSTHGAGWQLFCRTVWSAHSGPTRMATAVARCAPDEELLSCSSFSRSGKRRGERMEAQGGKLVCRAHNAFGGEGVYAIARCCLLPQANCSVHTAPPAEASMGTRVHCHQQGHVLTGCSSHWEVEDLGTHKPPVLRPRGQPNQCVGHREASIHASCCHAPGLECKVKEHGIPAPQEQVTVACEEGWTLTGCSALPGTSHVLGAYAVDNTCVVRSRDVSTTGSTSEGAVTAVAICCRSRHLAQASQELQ

11F1: anti-PCSK9 ABP, light/heavy variable region SEQ ID NO 465/463 [Antibody 11F1]
TC returned to levels similar to control animals (PCSK9 [1]): ≤ 27 days | maximal LDL-C lowering as compared to control animals (PCSK9 [1]): 57% | maximal TC lowering as compared to control animals (PCSK9 [1]): 27% | maximal lowering of LDL-C vs anti-KLH IgG2 control at the same time point (change) (PCSK9 [1]): −57% | serum HDL-C vs anti-KLH IgG2 control (PCSK9 [1]): No statistically significant changes | time of maximal LDL-C lowering after injection (PCSK9 [1]): 9 days | time of maximal TC lowering after injection (PCSK9 [1]): 9 days | triglycerides levels vs anti-KLH IgG2 control (PCSK9 [1]): No statistically significant changes | serum ApoB vs anti-KLH IgG2 control (PCSK9 [1]; days 3, 6, 15, 24 and 33): ApoB lowering at days 3 to 24 | HDL-C or triglyceride levels vs anti-KLH IgG2 control (PCSK9 [1]; each time point, alpha=0.05): not significantly different | effect of pre-incubation with PCSK1 in solution on 11F1 binding to plate-captured PCSK9 (PCSK1): did not significantly impact the binding | effect of pre-incubation with PCSK9 in solution on 11F1 binding to plate-captured PCSK9 (PCSK9 [2]): dose dependently and robustly reduced | effect of pre-incubation with PCSK7 in solution on 11F1 binding to plate-captured PCSK9 (PCSK7): did not significantly impact the binding | effect of pre-incubation with furin in solution on 11F1 binding to plate-captured PCSK9 (furin): did not significantly impact the binding
